Experimental data from patent US20080311126A1, “Antisense Oligonucleotides Directed to Ribonucleotide Reducatase R2 and Uses Thereof in Combination Therapies for the Treatment of Cancer” (Genesense Technologies, Inc, priority 2004, published 2008).
Entries after “also recorded” stand apart in the source; their conditions may differ.

Legend:
[1] = test system: Human Pancreatic Adenocarcinoma; assay: Tumour growth assay, human pancreatic adenocarcinoma in mice; format: in vivo
Human Lung Carcinoma = assay: Tumour growth assay, human lung carcinoma in CD-1 Nude mice; format: in vivo
[2] = test system: Human taxol-resistant promyelocytic leukaemia cells (HL-60); assay: HL-60 taxol-resistant promyelocytic leukaemia xenograft in SCID mice; format: in vivo
Procedure: Human taxol-resistant promyelocytic leukaemia cells (HL-60) (7×10^6 cells in 100 μl of PBS) were injected into the right flank of 6-7 weeks old female SCID mice. After the size of tumour reached an approximate volume of 100 mm^3, 10 days post tumour cell injection, SEQ ID NO:1 was administered by bolus infusion into the tail vein every other day at 10 mg/kg. Control animals received saline alone for the same period. The anti-tumour effect of SEQ ID NO:1 was further compared to that of taxol. Taxol was administered i.p. once a week at a dose of 10 mg/kg. Anti-tumour activity was estimated by the inhibition of tumour volume, which was measured with caliper. Each point represents mean tumour volume calculated from 10 animals per experimental group. In addition animals were sacrificed and tumour weights taken at the end of the study.

[3] = Phase I single agent study of SEQ ID NO:1 in patients with solid tumours or melanoma; format: in vivo, human
[4] = test system: MDA-CDDP-S4 human Cisplatin-resistant breast adenocarcinoma cells; assay: MDA-CDDP-S4 Cisplatin-resistant breast adenocarcinoma, fat pad injection in SCID mice; format: in vivo; conditions: for Tumour weight as % of saline control: MDA-CDDP-S4 (breast), Cisplatin resistance, SCID
Procedure: MDA-CDDP-S4 human in vivo-selected Cisplatin-resistant breast adenocarcinoma cells (4×10^6 cells in 100 μl of PBS) were injected into the fat pad (inside of right leg) of 6-7 weeks old female SCID mice. After the size of tumour reached an approximate volume of 100 mm^3, 7 days post tumour cell injection, SEQ ID NO:1 was administered by bolus infusion into the tail vein every other day at 10 mg/kg 9 times. Control animals received saline alone for the same period. Antitumour effect of SEQ ID NO: 1 was further compared to that of Cisplatin or Taxol alone. Cisplatin was adminstered intravenously once a week for three weeks at a dose of 4 mg/kg. Taxol was administered intravenously once a week for three weeks at a dose of 10 mg/kg. Antitumour activities were estimated by the inhibition of tumour volume, which was measured with caliper. Each point represents mean tumour volume calculated from 10 animals per experimental group. […] As expected, treatment with Cisplatin during the same period was ineffective against Cisplatin-resistant tumour.
MDA-CDDP-S4 human in vivo-selected Cisplatin-resistant breast adenocarcinoma cells (4×10^6 cells in 100 μl of PBS) were injected into the fat pad (inside of right leg) of 6-7 weeks old female CB-17 SCID mice. After the size of tumour reached an approximate volume of 100 mm^3, 9 days post tumour cell injection, SEQ ID NO:1 was administered by bolus infusion into the tail vein every other day at 10 mg/kg. Control animals received saline alone for the same period. Antitumour effect of SEQ ID NO:1 was further compared to that of Taxol alone and in combination. Taxol was administered i.p. once a week at a dose of 10 mg/kg. Antitumour activities were estimated by the inhibition of tumour volume FIG. 22A), which was measured with calipers. Each point represents mean tumour volume calculated from 10 animals per experimental group. Animals were sacrificed and tumour weights taken at the end of the study (FIG. 22C). […] This study was repeated with similar results (FIG. 22B).

[5] = test system: Human Colon Adenocarcinoma; assay: Tumour growth assay, human colon adenocarcinoma in CD-1 nude mice; format: in vivo

GGCTAAATCGCTCCACCAAG (chemistry not given here) [SEQ ID NO: 1, antisense oligonucleotide that hybridizes to the coding region of human ribonucleotide reductase R2 mRNA]
Inhibition of tumour weight ([1]; Human Pancreatic Adenocarcinoma): approximately 65% | inhibition of tumour growth ([1]; up to 39 days after tumour implantation): Complete inhibition of tumour growth | Inhibition of tumour size (Human Lung Carcinoma; CD-1 Nude mice, Days 14 to 19 after tumour implantation): approximately 85% in CD-1 Nude mice | Inhibition of tumour weight (Human Lung Carcinoma; Human Lung Carcinoma): approximately 70% | Tumour weight as % of saline control ([2]; HL-60 (leukemia), Taxol resistance, SCID): 38% | anti-tumour effect (tumour volume, tumour weight) ([2]; SEQ ID NO:1 10 mg/kg every other day, Taxol 10 mg/kg i.p. weekly): significant reduction of tumour weight | dose with no evidence of toxicity ([3]; human subjects): 148.0 mg/m^2/day | maximum tolerated dose (MTD) ([3]; patients with solid tumours or melanoma): 222.0 mg/m^2/day | antitumour effect (tumour volume) ([4]; Example 13.3, SEQ ID NO:1 10 mg/kg 9 times, Cisplatin 4 mg/kg, Taxol 10 mg/kg i.v. weekly for three weeks): significant reduction of tumour weight | antitumour effect (tumour volume, tumour weight) ([4]; Example 13.4, CB-17 SCID mice, SEQ ID NO:1 10 mg/kg every other day, Taxol 10 mg/kg i.p. weekly): significant reduction of tumour weight; also recorded: superior to the inhibitory effects observed with Taxol | Tumour weight as % of saline control ([4]; Taxol combination study, first of two value columns): 18% | Tumour weight as % of saline control ([4]; Taxol combination study, second of two value columns): 41% | Tumour weight as % of saline control ([4]; study with Taxol and Cisplatin alone): 32% | Inhibition of tumour size ([5]; CD-1 nude mice, Day 18 after tumour implantation): mice by approximately 80% on Day 18 | dose dependence of decrease in tumour weight ([5]; CD-1 nude mice, doses of 1.0 to 6.0 mg/kg): Dose-dependent decrease in tumour | Inhibition of tumour weight ([5]; Human Colon Adenocarcinoma): approximately 80%
